Where two headings read alike, the source gives them in different places.
Legend:
Rattenlebermikrosomen = test: Inhibition of microsomal lipid peroxidation (malondialdehyde/thiobarbituric acid); assay type: biochemical, Ratte; conditions: rat liver microsomes, FeSO₄ start, 10 min 37°C; read-out: IC50 Mikrosomale Lipidperoxidation
Protocol: 4. Hemmung der Mikrosomalen Lipidperoxidation […]
Alle Schritte werden bei 0°C durchgeführt. Die Leber einer Ratte wird, um alles Hämoglobin zu entfernen, mit 0,9 % NaCl-Lösung gründlich gespült. Die grob zerkleinerte Leber wird dann in 10 mM Tris/HCl pH 7,4; 250 mM Saccharose (10 ml Puffer/g Leber) gepottert. Zunächst wird 5 Minuten bei 600xg zentrifugiert. Der Überstand wird dann 10 min bei 12000xg zentrifugiert und wird mit festem CaCl₂ (117,6 mg/100 ml) auf eine Konzentration von 8 mM eingestellt. Durch Zentrifugieren bei 25000 xg (15 min) wird ein Mikrosomenniederschlag gewonnen. Dieser Niederschlag wird im gleichen Volumen Puffer (10 mM Tris/HCl pH 7,4; 150 mM KCl) rehomogenisiert und erneut 15 min bei 25000 xg zentrifugiert.
Ein Testansatz besteht aus 20 µl Mikrosomen (100 mg/ml), vgl. oben, gelöst in Puffer (250 mM Tris/HCl pH 6,6, 750 mM KCl), 10 µl 50 mM MgCl₂, 10 µl 200 mM Isocitronensäure, 10 µl 4mM NADP (3,028 mg/ml Wasser), 10 µl 25 mM Niacinamid, 10 µl Isocitratdehydrogenase (1:100 verdünnt) und 20 µl Wasser oder Testsubstanz. Gestartet wird die Reaktion mit 10 µl 0,25 mM FeSO₄. Die Inkubation dauert 10 Minuten und erfolgt bei 37°C. Gestoppt wird mit 500 µl eiskalter 20 %iger Trichloressigsäure. Entstandenes Malondialdehyd wird durch Zugabe von 500 µl 0,67 %iger Thiobarbitursäure und 30 Minuten Inkubation bei 90°C in eine pinkfarbene Verbindung überführt, die bei 532 nm gemessen wird. Die Extinktion im Kontrollansatz ohne Prüfpräparat wird auf 0 % Hemmung gesetzt, während das völlige Verschwinden des Signals 100 % Hemmung bedeutet.

Chondrozyten [1] = test: IL-1-induced chondrocytic chondrolysis in chondrocyte agarose culture, 35S-sulfate incorporation; conditions: agarose cell culture with 5 u/ml human rec. IL-1 alpha; factor relative to IL-1 treated control
Chondrozyten [2] = test: Stimulation of cartilage matrix (proteoglycan) synthesis in chondrocyte agarose culture, 35S-sulfate incorporation; assay type: cell-based, Rinder; conditions: Chondrocyte, read-out: Stimulationsfaktor der Proteoglykansynthese
From the text: 1. Wirksamkeit in der Synthese-Stimulierung von Knorpel-Matrix, Prüfung in der Chondrozyten-Kultur
Zellen: Den Fußgelenken frisch geschlachteter Rinder werden der hyaline Knorpel entnommen, mit Pronase (Boehringer Mannheim) und Collagenase (Sigma), die native Matrix enzymatisch abgebaut, und die Chondrozyten in 1 %iger "low melting Agarose" in 24er Multiwell-Schalen in einer Zelldichte von 4 x 10⁶ pro well ausplattiert.
Medium: Komplettes Medium enthält HAM's F12 (Biochrom KG, Berlin) und 10 % foetales Kälberserum (Boehringer Mannheim), die Testsubstanz wird in Medium gelöst, üblicherweise in einer Konzentration von 10⁻⁵ M zugegeben und bei jedem Mediumwechsel erneut zugefügt.
Versuchsdurchführung: Die Behandlung erfolgt vom dritten bis zehnten Tag der Primärkultur, am 9. […] Die dissoziative Extraktion der Proteoglykane aus der Agarose-Schicht wird mit 8M Guanidinium-Hydrochlorid und beigefügten Proteinase-Inhibitoren (Sigma) unter Schütteln bei 4° C über 24 h durchgeführt. Der Überstand wird nach Zentrifugation über eine PD 10 ®Sephadex G 25 Säule in freies und inkorporiertes Sulfat getrennt, dessen Aktivität nach Aliquotierung im β-Szintillationscounter gemessen wird.
Auswertung: Der Parameter für die Matrixproduktion der Chondrozyten ist die Menge synthetisierter Proteoglykane, gemessen als Sulfatinkorporation in cpm. Aus vier Wells pro Gruppe wird der Mittelwert errechnet. Dieser wird durch den Mittelwert der unbehandelten Kontrolle dividiert, und ergibt somit einen Stimulationsfaktor, der bei Stimulation der Matrixsynthese größer 1 ist, bei Hemmung derselben durch Substanzwirkung kleiner 1, und bei unveränderter Matrixsynthese gleich 1 ist.
Als Standard wird Diacerein eingesetzt, das unter dem Markennamen "Artodar" von der Firma Proter bzw. […] Tabelle II

Row | Compound | IC50 (Rattenlebermikrosomen) [nM] | Stimulationsfaktor der Proteoglykansynthese (Chondrozyten [1]) | other results
1 | COP(=O)(OC)C(NCc1ccc2c(c1)OCO2)c1cc(C(C)(C)C)c(O)c(C(C)(C)C)c1 (stereo not drawn) [Beispiel 29] | 690 | 1,5 | –
2 | CCCN(CCC)C(c1cc(C(C)(C)C)c(O)c(C(C)(C)C)c1)P(=O)(OCC)OCC (stereo not drawn) [Beispiel 21] | 6350 | – | –
3 | CCOP(=O)(OCC)C(NCc1ccc(OC)cc1)c1cc(C(C)(C)C)c(O)c(C(C)(C)C)c1 (stereo not drawn) [Beispiel 32] | – | 1,4 | –
4 | CCOP(=O)(OCC)C(NCc1ccc(C#N)cc1)c1cc(C(C)(C)C)c(O)c(C(C)(C)C)c1 (stereo not drawn) [Beispiel 35] | – | 3,9 | –
5 | CCOP(=O)(OCC)C(Nc1ccc(Cl)c(Cl)c1)c1cc(C(C)(C)C)c(O)c(C(C)(C)C)c1 (stereo not drawn) [Beispiel 48] | 2950 | 1,7 | –
6 | CCOP(=O)(OCC)C(Nc1ccc(OC)c(OC)c1)c1cc(C(C)(C)C)c(O)c(C(C)(C)C)c1 (stereo not drawn) [Beispiel 58] | – | 1,2 | fold induction at 10 µM (Chondrozyten [2]): 2.5
7 | CCOP(=O)(O)C(Nc1ccccn1)c1cc(C(C)(C)C)c(O)c(C(C)(C)C)c1 (stereo not drawn) [Beispiel 78] | – | – | fold induction at 10 µM (Chondrozyten [2]): 1.4
8 | CCOP(=O)(OCC)C(Nc1ccc(S(N)(=O)=O)cc1)c1cc(C(C)(C)C)c(O)c(C(C)(C)C)c1 (stereo not drawn) [Beispiel 68] | 2370 | 1,3 | –
9 | CCOP(=O)(OCC)C(NCc1ccc2c(c1)OCO2)c1cc(C(C)(C)C)c(O)c(C(C)(C)C)c1 (stereo not drawn) [Beispiel 30] | – | 1,5 | fold induction at 10 µM (Chondrozyten [2]): 1.4
10 | CC(C)(C)c1cc(C(Nc2ccc(Cl)cc2)P(=O)(Oc2ccccc2)Oc2ccccc2)cc(C(C)(C)C)c1O (stereo not drawn) [Beispiel 47] | – | 1,8 | –
11 | CCCCOP(=O)(OCCCC)C(Nc1ccc2ccccc2c1)c1cc(C(C)(C)C)c(O)c(C(C)(C)C)c1 (stereo not drawn) [Beispiel 77] | 8700 | 1,3 | –
12 | CCOP(=O)(OCC)C(Nc1ccccc1Cl)c1cc(C(C)(C)C)c(O)c(C(C)(C)C)c1 (stereo not drawn) [Beispiel 39] | 2400 | – | –
13 | CCOP(=O)(OCC)C(NCc1ccc(Cl)cc1)c1cc(C(C)(C)C)c(O)c(C(C)(C)C)c1 (stereo not drawn) [Beispiel 33] | – | 2,2 | –
14 | CCOP(=O)(OCC)C(Nc1ccccc1C(=O)OC)c1cc(C(C)(C)C)c(O)c(C(C)(C)C)c1 (stereo not drawn) [Beispiel 65] | 730 | – | fold induction at 10 µM (Chondrozyten [2]): 1.3
15 | CCOP(=O)(OCC)C(NC1CCCCCC1)c1cc(C(C)(C)C)c(O)c(C(C)(C)C)c1 (stereo not drawn) [Beispiel 11] | 970 | – | –
16 | CCOP(=O)(OCC)C(Nc1ccc2c(c1)CCCC2)c1cc(C(C)(C)C)c(O)c(C(C)(C)C)c1 (stereo not drawn) [Beispiel 75] | 2900 | – | –
17 | CCOP(=O)(OCC)C(Nc1ccc(C(F)(F)F)cc1)c1cc(C(C)(C)C)c(O)c(C(C)(C)C)c1 (stereo not drawn) [Beispiel 51] | – | – | fold induction at 10 µM (Chondrozyten [2]): 1.6
18 | CCOP(=O)(OCC)C(Nc1ccc(NC(=N)N)cc1)c1cc(C(C)(C)C)c(O)c(C(C)(C)C)c1 (stereo not drawn) [Beispiel 73] | 670 | – | –
19 | CC(C)(C)c1cc(C(NCc2ccccc2)[PH](=O)O)cc(C(C)(C)C)c1O (stereo not drawn) [Beispiel 27] | – | 1,2 | –
20 | C=CCOP(=O)(OCC=C)C(Nc1ccc(Cl)cc1)c1cc(C(C)(C)C)c(O)c(C(C)(C)C)c1 (stereo not drawn) [Beispiel 46] | 860 | – | –
21 | CC(C)(C)c1cc(C(Nc2ccc(Cl)cc2)P(C)(=O)O)cc(C(C)(C)C)c1O (stereo not drawn) [Beispiel 41] | – | 3,5 | –
22 | CCOP(=O)(OCC)C(Nc1ccc(F)cc1)c1cc(C(C)(C)C)c(O)c(C(C)(C)C)c1 (stereo not drawn) [Beispiel 38] | – | 1,3 | fold induction at 10 µM (Chondrozyten [2]): 1.7

Row | Compound | IC50 (Rattenlebermikrosomen) [nM] | Stimulationsfaktor der Proteoglykansynthese (Chondrozyten [1]) | other results
23 | CCOP(=O)(OCC)C(Nc1ccc(OC)cc1)c1cc(C(C)(C)C)c(O)c(C(C)(C)C)c1 (stereo not drawn) [Beispiel 57] | – | 1,4 | fold induction at 10 µM (Chondrozyten [2]): 1.5
24 | CCCCOP(=O)(OCCCC)C(NC1CCCCC1)c1cc(C(C)(C)C)c(O)c(C(C)(C)C)c1 (stereo not drawn) [Beispiel 10] | 9000 | 1,5 | –
25 | CCOP(=O)(OCC)C(Nc1ccc(C(=O)OC)cc1)c1cc(C(C)(C)C)c(O)c(C(C)(C)C)c1 (stereo not drawn) [Beispiel 66] | 750 | – | –
26 | CCN(CC)CCNC(c1cc(C(C)(C)C)c(O)c(C(C)(C)C)c1)[PH](=O)O (stereo not drawn) [Beispiel 14] | – | 1,2 | –
27 | CCOP(=O)(OCC)C(NCc1ccc(N)cc1)c1cc(C(C)(C)C)c(O)c(C(C)(C)C)c1 (stereo not drawn) [Beispiel 34] | 700 | – | fold induction at 10 µM (Chondrozyten [2]): 1.2
28 | CCOP(=O)(OCC)C(NC(C)C(=O)OC)c1cc(C(C)(C)C)c(O)c(C(C)(C)C)c1 (stereo not drawn) [Beispiel 19] | – | 4,3 | –
29 | CC(C)(C)c1cc(C(Nc2ccc(Cl)cc2)[PH](=O)O)cc(C(C)(C)C)c1O (stereo not drawn) [Beispiel 40] | 490 | 2,1 | –
30 | CC(C)(C)c1cc(C(Nc2ccc(Cl)cc2)P(=O)(O)O)cc(C(C)(C)C)c1O (stereo not drawn) [Beispiel 4] | 710 | – | –
31 | CCCOP(=O)(OCCC)C(NC1CCCCC1)c1cc(C(C)(C)C)c(O)c(C(C)(C)C)c1 (stereo not drawn) [Beispiel 9] | 2100 | – | –
32 | CCOP(=O)(OCC)C(Nc1cc(C(F)(F)F)ccc1F)c1cc(C(C)(C)C)c(O)c(C(C)(C)C)c1 (stereo not drawn) [Beispiel 52] | – | – | fold induction at 10 µM (Chondrozyten [2]): 1.7
33 | CCOP(=O)(OCC)C(NC1CCN(Cc2ccccc2)CC1)c1cc(C(C)(C)C)c(O)c(C(C)(C)C)c1 (stereo not drawn) [Beispiel 18] | 2030 | – | –
34 | COP(=O)(OC)C(Nc1ccc(Cl)cc1)c1cc(C(C)(C)C)c(O)c(C(C)(C)C)c1 (stereo not drawn) [Beispiel 43] | 790 | 1,4 | –
35 | CCOP(=O)(OCC)C(c1cc(C(C)(C)C)c(O)c(C(C)(C)C)c1)N(C)c1ccc(Cl)cc1 (stereo not drawn) [Beispiel 54] | 2800 | 1,4 | –
36 | CC(C)(C)c1cc(C(Nc2ccccc2)[PH](=O)O)cc(C(C)(C)C)c1O (stereo not drawn) [Beispiel 36] | – | 2,5 | fold induction at 10 µM (Chondrozyten [2]; agarose cell culture, test substance usually 10⁻⁵ M, mean sulfate incorporation divided by untreated control (>1 = stimulation)): 1.2
37 | CC(C)(C)c1cc(C(NCc2ccc3c(c2)OCO3)[PH](=O)O)cc(C(C)(C)C)c1O (stereo not drawn) [Beispiel 28] | – | 5,5 | –
38 | CCCOP(=O)(OCCC)C(Nc1ccc(Cl)cc1)c1cc(C(C)(C)C)c(O)c(C(C)(C)C)c1 (stereo not drawn) [Beispiel 44] | 1050 | 1,5 | –
39 | CCOP(=O)(OCC)C(NC1CCCCC1)c1cc(C(C)(C)C)c(O)c(C(C)(C)C)c1 (stereo not drawn) [Beispiel 8] | 730 | – | fold induction at 10 µM (Chondrozyten [2]): 1.2
40 | CCOP(=O)(OCC)C(Nc1ccccc1)c1cc(C(C)(C)C)c(O)c(C(C)(C)C)c1 (stereo not drawn) [Beispiel 37] | – | 1,5 | –
41 | CCOP(=O)(OCC)C(NC1CC(C)(C)NC(C)(C)C1)c1cc(C(C)(C)C)c(O)c(C(C)(C)C)c1 (stereo not drawn) [Beispiel 17] | 3180 | – | –
42 | CCOP(=O)(OCC)C(NC(CC(C)C)C(=O)OC)c1cc(C(C)(C)C)c(O)c(C(C)(C)C)c1 (stereo not drawn) [Beispiel 20] | 2100 | – | –
43 | CCOP(=O)(OCC)C(Nc1ccc2ccccc2c1)c1cc(C(C)(C)C)c(O)c(C(C)(C)C)c1 (stereo not drawn) [Beispiel 76] | 2050 | – | –

— patent publication EP0703239A1, “Aminomethylphosphonic and aminomethylphosphinic acids derivatives and their use in the treatment of degenerative articular diseases” (priority 1994, dated 1996)
